Measurements as given in patent US20250296959A1, “B7-H3 TARGETING PEPTIDES AND CONSTRUCTS THEREOF” (Mariana Oncology Inc., priority 2024, published 2025).
Where two headings read alike, the source gives them in different places. Starred links: 1 amine or outer side, 2 acyl side, 3 side chain; linkers in the order of their positions; H or OH if unused. Positions of bridges follow the written chain, without caps; N, C: chain ends. Non-standard residues stand in square brackets, D forms with d. Residues, ends and D or L forms follow the SMILES beside them. Groups on a side chain read outwards from the residue. *: point of attachment. X4 = O=C(O)CN1CCN(CC(=O)O)CCN([C@H](CCC(=O)*)C(=O)O)CCN(CC(=O)O)CC1; Ala(1-CH2CO2H-4-piperidyl) = N[C@@H](CC1CCN(CC(=O)O)CC1)C(=O)O; Ala(piperidin-4-yl) = O=C([C@H](CC1CCN([*:3])CC1)N[*:1])[*:2]; DOTA = O=C(O)CN1CCN(CC(=O)O)CCN(CC(=O)*)CCN(CC(=O)O)CC1; Phe(4-COOH) = N[C@@H](Cc1ccc(C(=O)O)cc1)C(=O)O; Trp(5-F) = N[C@@H](Cc1c[nH]c2ccc(F)cc12)C(=O)O; X1 = C[C@@H](c1ccccc1)[C@H](N[*:1])C(=O)[*:2]; γGlu = O=C(O)[C@H](CCC(=O)[*:2])N[*:1]; Ala(4-THP) = N[C@@H](CC1CCOCC1)C(=O)O; Val(3-OH) = CC(C)(O)[C@H](N)C(=O)O; 4Pal = N[C@@H](Cc1ccncc1)C(=O)O; PEG4 = NCCOCCOCCOCCOCCC(=O)O; Tle = CC(C)(C)[C@H](N)C(=O)O; hLeu = CC(C)CC[C@H](N)C(=O)O

Experiments:
Calu-6 cell line [1] = test: Cell associated (bound) fraction of [177Lu]Lu-labeled peptide in Calu-6 cells; type: cell-based, Human; details: 1 hour, 37° C.
Procedure, shortened: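 Detached B7-H3-expressing human lung cancer cells at 5 million/mL were exposed for 1 hour at 37 °C to 0.8 μCi of the 177Lu-labelled peptide, which was formulated in 1% PBSA after labelling at 80 °C, pH ~5. Supernatant and two cold washes counted as unbound, and resuspended cells gamma-counted as the cell-associated fraction.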

human 4lg B7-H3 = target: T1, human 4lg B7-H3 (Homo sapiens, UniProt Q5ZPR3); test: Affinity determination by surface plasmon resonance (SPR) to 4Ig B7-H3; details: 4Ig B7-H3
T1 sequence (Q5ZPR3 29-534): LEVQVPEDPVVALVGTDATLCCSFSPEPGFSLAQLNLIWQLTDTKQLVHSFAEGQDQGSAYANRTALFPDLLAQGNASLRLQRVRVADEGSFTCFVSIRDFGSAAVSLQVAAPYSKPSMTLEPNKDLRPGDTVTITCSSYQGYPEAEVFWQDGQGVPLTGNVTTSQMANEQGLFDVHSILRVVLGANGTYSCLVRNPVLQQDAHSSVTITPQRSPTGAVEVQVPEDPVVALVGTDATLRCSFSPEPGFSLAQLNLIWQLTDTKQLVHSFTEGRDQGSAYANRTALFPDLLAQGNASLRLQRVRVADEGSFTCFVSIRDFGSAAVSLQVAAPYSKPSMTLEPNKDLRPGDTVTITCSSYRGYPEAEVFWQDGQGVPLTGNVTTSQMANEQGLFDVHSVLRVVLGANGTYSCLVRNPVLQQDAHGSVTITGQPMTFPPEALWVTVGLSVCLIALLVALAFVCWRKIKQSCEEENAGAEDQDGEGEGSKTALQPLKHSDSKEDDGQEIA

Calu-6 cell line [2] = test: Net internalization of [177Lu]Lu-labeled peptide in Calu-6 cells; type: cell-based, Human; details: 1 hour, 37° C., glycine pH 2.5 acid wash
Procedure, shortened: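 Calu-6 cells, human non-engineered lung cancer expressing B7-H3, resuspended in 1% PBSA at 5 million cells/mL and incubated with the 177Lu-labeled conjugate (labeled at 80 °C, pH ~5, RP-HPLC checked). Gamma counting of the bound fraction, then of the pellet after two glycine pH 2.5 acid strips and NaOH lysis, gives internalized activity.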

[3] = read-out: SPR KD—37° C., 37° C. flow cell temperature
[4] = read-out: SPR KD—25° C., 25° C. flow cell temperature

| SMILES | % cell associated fraction (Calu-6 cell line [1]) | Kd (human 4lg B7-H3; [3]) [nM] | % net internalization (Calu-6 cell line [2]) | Kd (human 4lg B7-H3; [4]) [nM] |
| --- | --- | --- | --- | --- |
| CC(=O)N[C@@H](CCC(C)C)C(=O)N[C@@H](Cc1ccc(O)cc1)C(=O)N[C@H]1CSSC[C@@H](C(=O)N[C@@H](Cc2c[nH]c3ccc(F)cc23)C(=O)N[C@H](C(=O)N[C@H](C(=O)N[C@H](CCCCNC(=O)CN2CCN(CC(=O)O)CCN(CC(=O)O)CCN(CC(=O)O)CC2)C(=O)O)C(C)(C)O)[C@@H](C)c2ccccc2)NC(=O)[C@H](Cc2ccc(O)cc2)NC(=O)[C@H](C(C)C)NC(=O)[C@H](CC(=O)O)NC(=O)[C@H](CC2CCOCC2)NC(=O)[C@H](CC2CCN(CC(=O)O)CC2)NC(=O)CNC(=O)[C@H](C(C)(C)C)NC1=O [compound 497, Ac-hLeu-Y-C-Tbg-G-Pip(CH2COOH)Ala-ThpA-D-V-Y-C-5FW-[(2S, 3S)beta-Me-Phe]-hydroxyVal-dLys(DOTA)-COOH] (Ac-[hLeu]YC[Tle]G[Ala(1-CH2CO2H-4-piperidyl)][Ala(4-THP)]DVYC[Trp(5-F)][X1][Val(3-OH)][dK](DOTA)-OH; disulfide 3-11) | C (%>50) | < 1 | A (%≤25) | – |
| CC(=O)N[C@@H](CCC(C)C)C(=O)N[C@@H](Cc1ccc(O)cc1)C(=O)N[C@H]1CSSC[C@@H](C(=O)N[C@@H](Cc2c[nH]c3ccc(F)cc23)C(=O)N[C@@H](Cc2ccccc2)C(=O)N[C@H](C(=O)N[C@H](CCCCNC(=O)CC[C@H](C(=O)O)N2CCN(CC(=O)O)CCN(CC(=O)O)CCN(CC(=O)O)CC2)C(=O)O)C(C)(C)O)NC(=O)[C@H](Cc2ccc(O)cc2)NC(=O)[C@H](C(C)C)NC(=O)[C@H](CC(=O)O)NC(=O)[C@H](CC2CCOCC2)NC(=O)[C@H](CC2CCNCC2)NC(=O)CNC(=O)[C@H](C(C)(C)C)NC1=O [compound 438, Ac-hLeu-Y-C-Tbg-G-PipAla-ThpA-D-V-Y-C-5FW-F-hydroxyVal-dLys(R-DOTAGA)-COOH] (Ac-[hLeu]YC[Tle]G[Ala(piperidin-4-yl)][Ala(4-THP)]DVYC[Trp(5-F)]F[Val(3-OH)][dK](X4)-OH; disulfide 3-11) | B (25<%≤50) | < 1 | A (%≤25) | – |
| CC(=O)N[C@@H](CCC(C)C)C(=O)N[C@@H](Cc1ccc(O)cc1)C(=O)N[C@H]1CSSC[C@@H](C(=O)N[C@@H](Cc2c[nH]c3ccc(F)cc23)C(=O)N[C@@H](Cc2ccccc2)C(=O)N[C@H](C(=O)N[C@H](CO)C(N)=O)C(C)(C)O)NC(=O)[C@H](Cc2ccc(O)cc2)NC(=O)[C@H](C(C)C)NC(=O)[C@H](CC(=O)O)NC(=O)[C@H](CC2CCOCC2)NC(=O)[C@H](CC2CCN(C(=O)CCOCCOCCOCCOCCNC(=O)CN3CCN(CC(=O)O)CCN(CC(=O)O)CCN(CC(=O)O)CC3)CC2)NC(=O)CNC(=O)[C@H](C(C)(C)C)NC1=O [compound 407, Ac-hLeu-Y-C-Tbg-G-Pip(PEG4-DOTA)Ala-ThpA-D-V-Y-C-5FW-F-hydroxyVal-dSer-CONH2] (Ac-[hLeu]YC[Tle]G[Ala(piperidin-4-yl)]([PEG4-DOTA])[Ala(4-THP)]DVYC[Trp(5-F)]F[Val(3-OH)][dS]-NH2; disulfide 3-11) | C (%>50) | < 1 | A (%≤25) | – |
| CC(=O)N[C@@H](CCC(C)C)C(=O)N[C@@H](Cc1ccc(O)cc1)C(=O)N[C@H]1CSSC[C@@H](C(=O)N[C@@H](Cc2c[nH]c3ccc(F)cc23)C(=O)N[C@@H](Cc2ccccc2)C(=O)N[C@H](C(=O)N[C@H](C)C(=O)O)C(C)(C)O)NC(=O)[C@H](Cc2ccc(O)cc2)NC(=O)[C@H](C(C)C)NC(=O)[C@H](CC(=O)O)NC(=O)[C@H](CC2CCN(C(=O)CCOCCOCCOCCOCCNC(=O)CN3CCN(CC(=O)O)CCN(CC(=O)O)CCN(CC(=O)O)CC3)CC2)NC(=O)[C@H](CC2CCNCC2)NC(=O)CNC(=O)[C@H](C(C)(C)C)NC1=O [compound 455, Ac-hLeu-Y-C-Tbg-G-PipAla-Pip(PEG4-DOTA)Ala-D-V-Y-C-5FW-F-hydroxyVal-dAla-COOH] (Ac-[hLeu]YC[Tle]G[Ala(piperidin-4-yl)][Ala(piperidin-4-yl)]([PEG4-DOTA])DVYC[Trp(5-F)]F[Val(3-OH)][dA]-OH; disulfide 3-11) | C (%>50) | < 1 | B (25<%≤50) | – |
| CC(=O)N[C@@H](CCC(C)C)C(=O)N[C@@H](Cc1ccc(O)cc1)C(=O)N[C@H]1CSSC[C@@H](C(=O)N[C@@H](Cc2c[nH]c3ccc(F)cc23)C(=O)N[C@@H](Cc2ccccc2)C(=O)N[C@H](C(N)=O)C(C)(C)O)NC(=O)[C@H](Cc2ccc(O)cc2)NC(=O)[C@H](C(C)C)NC(=O)[C@H](CC(=O)O)NC(=O)[C@H](CC2CCN(C(=O)CCOCCOCCOCCOCCNC(=O)CN3CCN(CC(=O)O)CCN(CC(=O)O)CCN(CC(=O)O)CC3)CC2)NC(=O)[C@H](CCCCN)NC(=O)CNC(=O)[C@H](C(C)(C)C)NC1=O [compound 383, Ac-hLeu-Y-C-Tbg-G-K-Pip(PEG4-DOTA)Ala-D-V-Y-C-5FW-F-hydroxyVal-CONH2] (Ac-[hLeu]YC[Tle]GK[Ala(piperidin-4-yl)]([PEG4-DOTA])DVYC[Trp(5-F)]F[Val(3-OH)]-NH2; disulfide 3-11) | B (25<%≤50) | < 1 | B (25<%≤50) | – |
| CC(=O)N[C@@H](CCC(C)C)C(=O)N[C@@H](Cc1ccc(O)cc1)C(=O)N[C@H]1CSSC[C@@H](C(=O)N[C@@H](Cc2c[nH]c3ccc(F)cc23)C(=O)N[C@@H](Cc2ccccc2)C(=O)N2CCC[C@H]2C(=O)N[C@H](CCCCNC(=O)CN2CCN(CC(=O)O)CCN(CC(=O)O)CCN(CC(=O)O)CC2)C(N)=O)NC(=O)[C@H](Cc2ccc(O)cc2)NC(=O)[C@H](C(C)C)NC(=O)[C@H](CC(=O)O)NC(=O)[C@H](Cc2ccc(C(=O)O)cc2)NC(=O)[C@H](CC2CCNCC2)NC(=O)CNC(=O)[C@H](C(C)C)NC1=O [compound 286, Ac-hLeu-Y-C-V-G-PipAla-4COOHPhe-D-V-Y-C-5FW-F-Pro-dLys(DOTA)-CONH2] (Ac-[hLeu]YCVG[Ala(piperidin-4-yl)][Phe(4-COOH)]DVYC[Trp(5-F)]FP[dK](DOTA)-NH2; disulfide 3-11) | C (%>50) | 1 to 10 | A (%≤25) | < 1 |
| CC(=O)N[C@@H](CCC(C)C)C(=O)N[C@@H](Cc1ccc(O)cc1)C(=O)N[C@H]1CSSC[C@@H](C(=O)N[C@@H](Cc2c[nH]c3ccc(F)cc23)C(=O)N[C@@H](Cc2ccccc2)C(=O)N[C@H](C(=O)N[C@H](CCCCNC(=O)CC[C@H](NC(=O)CN2CCN(CC(=O)O)CCN(CC(=O)O)CCN(CC(=O)O)CC2)C(=O)O)C(=O)O)C(C)(C)O)NC(=O)[C@H](Cc2ccc(O)cc2)NC(=O)[C@H](C(C)C)NC(=O)[C@H](CC(=O)O)NC(=O)[C@H](CC2CCOCC2)NC(=O)[C@H](CC2CCNCC2)NC(=O)CNC(=O)[C@H](C(C)(C)C)NC1=O [compound 440, Ac-hLeu-Y-C-Tbg-G-PipAla-ThpA-D-V-Y-C-5FW-F-hydroxyVal-dLys(gGlu-DOTA)-COOH] (Ac-[hLeu]YC[Tle]G[Ala(piperidin-4-yl)][Ala(4-THP)]DVYC[Trp(5-F)]F[Val(3-OH)][dK]([γGlu-DOTA])-OH; disulfide 3-11) | B (25<%≤50) | < 1 | A (%≤25) | – |
| CC(=O)N[C@@H](CCC(C)C)C(=O)N[C@@H](Cc1ccc(O)cc1)C(=O)N[C@H]1CSSC[C@@H](C(=O)N[C@@H](Cc2c[nH]c3ccc(F)cc23)C(=O)N[C@@H](Cc2ccccc2)C(=O)N[C@H](C(=O)N[C@H](CCCCNC(=O)[C@@H](CCC(=O)O)NC(=O)CN2CCN(CC(=O)O)CCN(CC(=O)O)CCN(CC(=O)O)CC2)C(=O)O)C(C)(C)O)NC(=O)[C@H](Cc2ccc(O)cc2)NC(=O)[C@H](C(C)C)NC(=O)[C@H](CC(=O)O)NC(=O)[C@H](CC2CCOCC2)NC(=O)[C@H](CC2CCNCC2)NC(=O)CNC(=O)[C@H](C(C)(C)C)NC1=O [compound 429, Ac-hLeu-Y-C-Tbg-G-PipAla-ThpA-D-V-Y-C-5FW-F-hydroxyVal-dLys(dGlu-DOTA)-COOH] (Ac-[hLeu]YC[Tle]G[Ala(piperidin-4-yl)][Ala(4-THP)]DVYC[Trp(5-F)]F[Val(3-OH)][dK]([dE-DOTA])-OH; disulfide 3-11) | B (25<%≤50) | < 1 | A (%≤25) | – |
| CC(=O)N[C@@H](CCC(C)C)C(=O)N[C@@H](Cc1ccc(O)cc1)C(=O)N[C@H]1CSSC[C@@H](C(=O)N[C@@H](Cc2c[nH]c3ccccc23)C(=O)N[C@@H](Cc2ccccc2)C(=O)N[C@H](C(=O)N[C@H](CCCCNC(=O)CN2CCN(CC(=O)O)CCN(CC(=O)O)CCN(CC(=O)O)CC2)C(N)=O)[C@@H](C)O)NC(=O)[C@H](Cc2ccc(O)cc2)NC(=O)[C@H](C(C)C)NC(=O)[C@H](CC(=O)O)NC(=O)[C@H](Cc2ccncc2)NC(=O)[C@H](CCCCN)NC(=O)CNC(=O)[C@H](C(C)(C)C)NC1=O [compound 157, Ac-hLeu-Y-C-Tbg-G-K-4PyA-D-V-Y-C-W-F-Thr-dLys(DOTA)-CONH2] (Ac-[hLeu]YC[Tle]GK[4Pal]DVYCWFT[dK](DOTA)-NH2; disulfide 3-11) | B (25<%≤50) | – | A (%≤25) | < 1 |
